Experimental data as given in patent US11173192B2 (priority 2016, dated 2021).

Assays:
VSV = assay type: cell-based, vesicular stomatitis virus (VSV)
[1] = system: VSV-infected RAW264.7 cells; assay type: cell-based

## EPRS: glutamyl-prolyl-tRNA synthetase protein, 1512 aa, SEQ ID NO: 63; expressed from plasmid or purified
VSV
  viral replication following infection with VSV: significantly less viral replication
[1]
  IFN-β production following infection with VSV: more production of IFN-β and IL-6
  IL-6 production following infection with VSV: more production of IFN-β and IL-6
